In patent US10047086B2, “Imidazopyridines and imidazopyrazines as LSD1 inhibitors” (Incyte Corporation, priority 2014, dated 2018) one finds IC50 data, which are given here for 27 compounds.

The structures appear in SMILES notation. A value given as a limit tells only on which side of the number the result lay.

The target in this assay is LSD-1 enzyme (Homo sapiens (Human), UniProt O60341). The assay can be described thus: LANCE LSD1/KDM1A demethylase assay (LSD1 histone demethylase biochemical assay). To be noted: 1 nM LSD-1 enzyme, 1 hour preincubation at 25° C., 0.4 μM Biotin-labeled Histone H3 peptide substrate. The method, then: LSD1 Histone Demethylase Biochemical Assay
LANCE LSD1/KDM1A demethylase assay-10 μL of 1 nM LSD-1 enzyme (ENZO BML-SE544-0050) in the assay buffer (50 mM Tris, pH 7.5, 0.01% Tween-20, 25 mM NaCl, 5 mM DTT) were preincubated for 1 hour at 25° C. with 0.8 μL compound/DMSO dotted in black 384 well polystyrene plates. […] Reactions were stopped by addition of 10 μL 1× LANCE Detection Buffer (PerkinElmer CR97-100) supplemented with 1.5 nM Eu-anti-unmodified H3K4 Antibody (PerkinElmer TRF0404), and 225 nM LANCE Ultra Streptavidin (PerkinElmer TRF102) along with 0.9 mM Tranylcypromine-HCl (Millipore 616431). After stopping the reactions plates were incubated for 30 minutes and read on a PHERAstar FS plate reader (BMG Labtech).
For orientation: TR-FRET usually uses a lanthanide donor and a delayed reading to cut background.
On to `CN1CCN(Cc2ccc(-c3c(-c4ccc(C#N)cc4)cc(OC[C@@H]4CCNC4)c4cncn34)cc2)CC1` [Example 19, 4-{5-{4-[(4-methylpiperazin-1-yl)methyl]phenyl}-8-[(3R)-pyrrolidin-3-ylmethoxy]imidazo-[1,5-a]pyridin-6-yl}benzonitrile], for which the IC50 (commonly the midpoint of a concentration-inhibition curve) is at most 50 nM.
Then `Cc1ccc(-c2c(-c3ccc(C#N)cc3)cc(OC[C@@H]3CCN(C)C3)c3cncn23)cc1` [Example 20, 4-(5-(4-methylphenyl)-8-{[(3R)-1-methylpyrrolidin-3-yl]methoxy}imidazo[1,5-a]pyridin-6-yl)benzonitrile], with at most 50 nM; and `CN1CCC[C@@H](COc2nc(-c3ccc(C#N)cc3)c(-c3ccc4c(cnn4C)c3)n3cncc23)C1` [Example 23, 4-(5-(1-methyl-1H-indazol-5-yl)-8-{[(3R)-1-methylpiperidin-3-yl]methoxy}imidazo[1,5-a]pyrazin-6-yl)benzonitrile], with at most 50 nM; and `CN1CCC[C@@H](COc2nc(-c3ccc(C#N)cc3)c(-c3ccc4c(c3)ncn4C)n3cncc23)C1` [Example 28, 4-(5-(1-methyl-1H-benzimidazol-5-yl)-8-{[(3R)-1-methylpiperidin-3-yl]methoxy}imidazo[1,5-a]pyrazin-6-yl)benzonitrile], with at most 50 nM.
`CN1CCC[C@@H](COc2nc(-c3ccc(C#N)cc3)c(-c3cnc4c(c3)OCCN4C)n3cncc23)C1` [Example 29, 4-(5-(4-methyl-3,4-dihydro-2H-pyrido[3,2-b][1,4]oxazin-7-yl)-8-{[(3R)-1-methylpiperidin-3-yl]methoxy}imidazo[1,5-a]pyrazin-6-yl)benzonitrile] gave an IC50 of at most 50 nM.
Compound `CN1CCC[C@@H](COc2nc(-c3ccc(C#N)cc3)c(-c3cc4oc(=O)n(C)c4cc3F)n3cncc23)C1` [Example 30, 4-(5-(5-fluoro-3-methyl-2-oxo-2,3-dihydro-1,3-benzoxazol-6-yl)-8-{[(3R)-1-methylpiperidin-3-yl]methoxy}imidazo[1,5-a]pyrazin-6-yl)benzonitrile] had an IC50 of at most 50 nM.
For `CN1CCC[C@@H](COc2nc(-c3ccc(C#N)cc3)c(-c3ccc4scnc4c3)n3cncc23)C1` [Example 34, (R)-4-(5-(benzo[d]thiazol-5-yl)-8-((1-methylpiperidin-3-yl)methoxy)imidazo[1,5-a]pyrazin-6-yl)benzonitrile], the IC50 is at most 50 nM.
Then `Cc1nc2cc(-c3c(-c4ccc(C#N)cc4)nc(OC[C@@H]4CCCN(C)C4)c4cncn34)ccc2s1` [Example 35, 4-(5-(2-methyl-1,3-benzothiazol-5-yl)-8-{[(3R)-1-methylpiperidin-3-yl]methoxy}imidazo[1,5-a]pyrazin-6-yl)benzonitrile], with at most 50 nM.
Then `CN1CCC[C@@H](COc2nc(-c3ccc(C#N)c(F)c3)c(-c3cnc4c(cnn4C)c3)n3cncc23)C1` [Example 36, 2-fluoro-4-[8-{[(3R)-1-methylpiperidin-3-yl]methoxy}-5-(1-methyl-1H-1-pyrazolo[3,4-b]pyridin-5-yl)imidazo[1,5-a]pyrazin-6-yl]benzonitrile], with at most 50 nM; and `Cn1ncc2cc(-c3c(-c4ccc(C#N)cc4)nc(OC[C@@H]4CCCN(CCO)C4)c4cncn34)cnc21` [Example 37, 4-[8-{[(3R)-1-(2-hydroxyethyl)piperidin-3-yl]methoxy}-5-(1-methyl-1H-1-pyrazolo[3,4-b]pyridin-5-yl)imidazo[1,5-a]pyrazin-6-yl]benzonitrile], with at most 50 nM; and `Cn1ncc2cc(-c3c(-c4ccc(C#N)cc4)nc(OC[C@@H]4CCCN(CCC#N)C4)c4cncn34)cnc21` [Example 38, 4-[8-{[(3R)-1-(2-cyanoethyl)piperidin-3-yl]methoxy}-5-(1-methyl-1H-1-pyrazolo[3,4-b]pyridin-5-yl)imidazo[1,5-a]pyrazin-6-yl]benzonitrile], with at most 50 nM.
Take `COCCN1CCC[C@@H](COc2nc(-c3ccc(C#N)cc3)c(-c3cnc4c(cnn4C)c3)n3cncc23)C1` [Example 40, 4-[8-{[(3R)-1-(2-methoxyethyl)piperidin-3-yl]methoxy}-5-(1-methyl-1H-pyrazolo[3,4-b]pyridin-5-yl)imidazo[1,5-a]pyrazin-6-yl]benzonitrile]: the IC50 is at most 50 nM.
With `Cc1ccc(-c2c(-c3ccc(C#N)cc3)nc(OC[C@@H]3CCCN(C)C3)c3cncn23)cc1CO` [Example 42, 4-(5-[3-(hydroxymethyl)-4-methylphenyl]-8-{[(3R)-1-methylpiperidin-3-yl]methoxy}imidazo[1,5-a]pyrazin-6-yl)benzonitrile], the IC50 is at most 50 nM.
As for `COc1ncc(-c2c(-c3ccc(C#N)cc3)nc(OC[C@@H]3CCCN(C)C3)c3cncn23)cc1F` [Example 43, 4-(5-(5-fluoro-6-methoxypyridin-3-yl)-8-{[(3R)-1-methylpiperidin-3-yl]methoxy}imidazo[1,5-a]pyrazin-6-yl)benzonitrile], the IC50 is at most 50 nM.
Then `Cc1cc(-c2c(-c3ccc(C#N)cc3)nc(OC[C@@H]3CCCN(C)C3)c3cncn23)cc(F)c1CO` [Example 44, 4-(5-[3-fluoro-4-(hydroxymethyl)-5-methylphenyl]-8-{[(3R)-1-methylpiperidin-3-yl]methoxy}imidazo[1,5-a]pyrazin-6-yl)benzonitrile], with at most 50 nM; and `Cc1cc(-c2c(-c3ccc(C#N)cc3)nc(OC[C@@H]3CCCN(C)C3)c3cncn23)ccc1CO` [Example 45, 4-(5-[4-(hydroxymethyl)-3-methylphenyl]-8-{[(3R)-1-methylpiperidin-3-yl]methoxy}imidazo[1,5-a]pyrazin-6-yl)benzonitrile], with at most 50 nM; and `CN1CCC[C@@H](COc2nc(-c3ccc(C#N)cc3)c(-c3cc(F)c(CO)c(F)c3)n3cncc23)C1` [Example 47, 4-(5-[3,5-difluoro-4-(hydroxymethyl)phenyl]-8-{[(3R)-1-methylpiperidin-3-yl]methoxy}imidazo[1,5-a]pyrazin-6-yl)benzonitrile], with at most 50 nM.
Take `COC(=O)N(C)Cc1ccc(-c2c(-c3ccc(C#N)cc3)nc(OC[C@@H]3CCCN(C)C3)c3cncn23)cc1F` [Example 48, methyl [4-(6-(4-cyanophenyl)-8-{[(3R)-1-methylpiperidin-3-yl]methoxy}imidazo[1,5-a]pyrazin-5-yl)-2-fluorobenzyl]methylcarbamate]: the IC50 was at most 50 nM.
The compound `CN(C)C1CCN(c2nc(-c3ccc(C#N)cc3)c(-c3cnc4c(cnn4C)c3)n3cncc23)CC1` [Example 50, 4-[8-[4-(dimethylamino)piperidin-1-yl]-5-(1-methyl-1H-pyrazolo[3,4-b]pyridin-5-yl)imidazo[1,5-a]pyrazin-6-yl]benzonitrile] yielded an IC50 of at most 50 nM.
In the case of `CN(C)C1CCN(c2nc(-c3ccc(C#N)cc3)c(-c3ccc4c(c3)oc(=O)n4C)n3cncc23)CC1` [Example 51, 4-[8-[4-(dimethylamino)piperidin-1-yl]-5-(3-methyl-2-oxo-2,3-dihydro-1,3-benzoxazol-6-yl)imidazo[1,5-a]pyrazin-6-yl]benzonitrile], the 50% inhibitory concentration (IC50) was at most 50 nM.
In turn, `COc1ccc(-c2c(-c3ccc(C#N)cc3)nc(N3CCC(N(C)C)CC3)c3cncn23)cn1` [Example 53, 4-[8-[4-(dimethylamino)piperidin-1-yl]-5-(6-methoxypyridin-3-yl)imidazo[1,5-a]pyrazin-6-yl]benzonitrile] had an IC50 of at most 50 nM.
Then `CN(C)C1CCN(c2nc(-c3ccc(C#N)cc3)c(-c3ccc(N4CCCC4=O)nc3)n3cncc23)CC1` [Example 54, 4-{8-[4-(dimethylamino)piperidin-1-yl]-5-[6-(2-oxopyrrolidin-1-yl)pyridin-3-yl]imidazo[1,5-a]pyrazin-6-yl}benzonitrile], with at most 50 nM; and `CN1CCC[C@@H](COc2cc(-c3ccc(C#N)cc3)c(-c3ccc4nccnc4c3)n3cncc23)C1` [Example 56, (R)-4-(8-((1-methylpiperidin-3-yl)methoxy)-5-(quinoxalin-6-yl)imidazo[1,5-a]pyridin-6-yl)benzonitrile], with at most 50 nM.
Then `CN1CCC[C@@H](COc2cc(-c3ccc(C#N)cc3)c(-c3cnc4c(c3)oc(=O)n4C)n3cncc23)C1` [Example 57, (R)-4-(5-(3-methyl-2-oxo-2,3-dihydrooxazolo[4,5-b]pyridin-6-yl)-8-((1-methylpiperidin-3-yl)methoxy)imidazo[1,5-a]pyridin-6-yl)benzonitrile], with at most 50 nM.
As for `CN1CCC[C@@H](COc2cc(-c3ccc(C#N)cc3)c(-c3cnc4c(c3)ncn4C)n3cncc23)C1` [Example 58, (R)-4-(5-(3-methyl-3H-imidazo[4,5-b]pyridin-6-yl)-8-((1-methylpiperidin-3-yl)methoxy)imidazo[1,5-a]pyridin-6-yl)benzonitrile], the IC50 is at most 50 nM.
Take `CN1CCC[C@@H](COc2cc(-c3ccc(C#N)cc3)c(-c3cnc4c(c3)OCCO4)n3cncc23)C1` [Example 62, (R)-4-(5-(2,3-dihydro-[1,4]dioxino[2,3-b]pyridin-7-yl)-8-((1-methylpiperidin-3-yl)methoxy)imidazo[1,5-a]pyridin-6-yl)benzonitrile]: the IC50 was at most 50 nM.
`CN1CCC[C@@H](COc2cc(-c3ccc(C#N)cc3)c(-c3ccc4c(c3)oc(=O)n4C)n3cncc23)C1` [Example 63, (R)-4-(5-(3-methyl-2-oxo-2,3-dihydrobenzo[d]oxazol-6-yl)-8-((1-methylpiperidin-3-yl)methoxy)imidazo[1,5-a]pyridin-6-yl)benzonitrile] had an IC50 of at most 50 nM.
